Data as given in ChEMBL document CHEMBL4825674, “Phorbol Esters from the Latex of Euphorbia umbellata: Bioguided Isolation of Highly Potent HIV-1 Latency Interrupters in Virus Reservoir Cells” (2021).

How the values were obtained:
[1] = system: Human immunodeficiency virus 1; test: Reactivation of HIV-1 latency infected in GFP-fused J-Lat 10.6 cells assessed as HIV-1 latency reactivation in reservoir cells at 2.24 uM incubated for 24 hrs flow cytometry analysis; format: functional
[2] = Reduction in CD4 expression in human MT4 cells at 1.77 uM incubated for 24 hrs by flow cytometry analysis; format: functional; design: scale not given: the % may be the effect or the level left
[3] = system: Human immunodeficiency virus 1; test: Reactivation of HIV-1 latency infected in GFP-fused J-Lat 10.6 cells assessed as HIV-1 latency reactivation in reservoir cells at 0.097 to 9.7 uM incubated for 24 hrs flow cytometry analysis; format: functional; conditions: dose 0.097-9.7 µM
[4] = Reduction in CD4 expression in human MT4 cells at 1.82 uM incubated for 24 hrs by flow cytometry analysis; format: functional; design: scale not given: the % may be the effect or the level left
[5] = system: MT4; test: Cytotoxicity against human MT4 cells assessed as cell viability at 1 ug/ml incubated for 24 hrs by CellTiter Blue viability assay; format: functional, cell-based; conditions: dose 1.0 µg/ml
[6] = Reduction in CD4 expression in human MT4 cells at 1.94 uM incubated for 24 hrs by flow cytometry analysis; format: functional; design: scale not given: the % may be the effect or the level left
[7] = system: Human immunodeficiency virus 1; test: Reactivation of HIV-1 latency infected in GFP-fused J-Lat 10.6 cells assessed as HIV-1 latency reactivation in reservoir cells at 0.088 to 8.85 uM incubated for 24 hrs flow cytometry analysis; format: functional; conditions: dose 0.088-8.85 µM

| Structure (SMILES) | Activity [1] [%] | Activity [2] [%] | Activity [3] [%] | Activity [4] [%] | Activity [5] | Activity [6] [%] | Activity [7] [%] |
| --- | --- | --- | --- | --- | --- | --- | --- |
| CCCCCC(=O)O[C@H]1C(C)=C[C@]23C(=O)[C@@H](C=C(CO)[C@@H](O)[C@]12O)[C@H]1[C@@H](C[C@H]3C)C1(C)C | 70 |  |  |  |  |  |  |
| C/C=C(/C)C(=O)O[C@@H]1[C@@H](C)[C@]2(O)[C@@H]3C=C(C)C(=O)[C@@]3(O)[C@H](O)C(C)=C[C@H]2[C@H]2C(C)(C)[C@]12OC(=O)C(C)C |  | 40 | 70 | 40 | Not toxic | 40 |  |
| C/C=C(/C)C(=O)O[C@@H]1[C@@H](C)[C@]2(O)[C@@H]3C=C(C)C(=O)[C@@]3(O)[C@H](O)C(C)=C[C@H]2[C@H]2C(C)(C)[C@]12OC(=O)Cc1ccccc1 |  |  |  |  | Not toxic |  | 70 |
